Test results reported in patent US20050187288A1, “Beta-lapachone and methods of treating cancer” (priority 2004, published 2005).
Values joined by “and” are separate entries in the source; they are usually repeats but may differ in a detail not shown here. Identical values can stand only once. Like-named read-outs stand apart in the source and are kept apart here.

Key:
[1] = Reversibility of binding to human plasma proteins; assay type: in vitro ADME; conditions: pooled human plasma, dialyzed three times against fresh plasma, 37° C., read-out: fraction in plasma reversibly bound to plasma proteins
Description: The spiked plasma was incubated at 37° C. for 1 h, and then was dialyzed three times against fresh plasma aliquots at 37° C.

[2] = Stability on incubation in human plasma; assay type: in vitro ADME; conditions: incubated in human plasma at 37° C. for 16 hrs; previous studies
BxPC-3 = experiment: cells; conditions: Homo sapiens
Source text: (§1) Control plates received the same volume of DMSO alone.
(§2) Control plates receive the same volume of DMSO alone. […] Each “Replicate Result” represents the result of a separate experiment.

PaCa-2 = experiment: cells
Source text: as §1, §2

E2F-1 = E2F-1 protein expression by Western blot in Paca-2 cells; assay type: cell-based, human; conditions: 0.5 hours exposure
Description: Cells were harvested and whole cell lysates were prepared and resolved by SDS/PAGE, then Western blots were prepared using E2F-1 antibody obtained from Santa Cruz Biotechnology (Santa Cruz, Calif.) and an enhanced chemiluminescence assay system (Amersham Pharmacia).

[3] = system: HT-29 human colon cancer cells; experiment: Human colon cancer xenograft model; assay type: in vivo, mice
Description: (§3) The animals were randomized into three groups. […] Mean tumor volume was then analyzed.

G480 lung cancer cells = experiment: Colony formation assay, single agents and combination; assay type: cell-based
Source text: Control plates received the same volume of DMSO alone. […] Treated wells were presented as percentage of control. Data were presented as an average (+SEM) from three independent experiments.

ASPC-1 = experiment: Colony formation assay, combination with Taxol; assay type: cell-based, human; conditions: β-Lapachone 4 μM, Taxol 0.2 μM, 4 hours
Description: Control wells were treated with equivalent volumes of DMSO. After 4 hours cells were rinsed and fresh medium is added. Cultures were observed daily for 10-20 days and then were fixed and stained. […] DNA laddering formation and annexin staining indicate that cell death is due to apoptosis.

[4] = system: human Panc-1 pancreatic cancer cells; assay type: in vivo, mice
Description: as §3

[5] = system: multiple myeloma (MM) cells; experiment: MTT assay of multiple myeloma cells; assay type: cell-based, human; conditions: 4 μM, 24 h, all seven MM cell lines
[6] = system: normal breast epithelial cells (MCF-10A); experiment: Colony formation assay, cancer vs normal breast cells; assay type: cell-based, human; conditions: 4 h treatment
Source text: After 10-20 days, cells were fixed and stained with modified Wright-Giemsa stain.

[7] = dog, in vivo
Source text: On Day 23 of the study, 4 animals/sex/group were euthanized (barbiturate overdose) followed by exsanguination and subjected to necropsy as described below.

PC-3 = conditions: human, 4 h
Description: (§4) Control plates received the same volume of DMSO alone. After a 4 hour exposure the drug was carefully removed, and drug-free medium could be added. […] Colonies of greater than 50 cells were scored as survivors. Cells were maintained at 37° C. in 5% CO2 in complete humidity.

SK-OV-3 = conditions: human, 4 h
Description: as §4

HCT-116 = experiment: cells; conditions: Homo sapiens, HCT-116, read-out: LC50 (Replicate Results), HCT-116, 4 hour exposure, colonies after 14-21 days
Description: as §4
Control plates received the same volume of DMSO alone. After a 4 hour exposure the drug was carefully removed, and drug-free medium was added. […] Colonies of greater than 50 cells were scored as survivors. Cells were maintained at 37° C. in 5% CO2 in complete humidity. Each “Replicate Result” represents the result of a separate experiment.

DU-145 = experiment: cells; conditions: Homo sapiens, DU-145, read-out: LC50 (Replicate Results), DU-145, 4 hour exposure, colonies after 14-21 days
Description: as §4

SK-MEL-28 = experiment: cells; conditions: Homo sapiens, SK-MEL-28, read-out: LC50 (Replicate Results), SK-MEL-28, 4 hour exposure, colonies after 14-21 days
Description: as §4

A549 lung cancer cells = experiment: cells; conditions: Homo sapiens, A549, read-out: LC50, A549 Clone B surviving >LC99
[8] = Study 3A: neuropharmacological profile in rats
Description: In Study No. 3A, four groups of ten male Sprague-Dawley rats were dosed with a single 1 hour intravenous infusion via the tail vein at doses of 0 (vehicle), 5, 25, and 60 mg/kg as shown in Table 12.
Following dosing, animals were placed in a fixed environment consisting of a Plexiglas square, fitted with a lid and placed on absorbent paper to detect excretions.
Body temperatures were taken on all animals at 15 minutes following dose administration.

[9] = Study 1A: repetitive weekly intravenous toxicity study in rats
[10] = Pharmacokinetics after intravenous infusion in rats, HPBCD formulation; conditions: male, Sprague-Dawley, rat, plasma
[11] = Study 1B: dose-range-finding single dose intravenous toxicity study in rats
Source text: In Study No. 1B, five groups of six adult Sprague-Dawley rats (three male and three female) were randomized to treatment groups and treated via intravenous infusion as shown in
Other observations included clinical signs, body weights and food consumption. On Day 8, animals were anesthetized with CO2 and blood for testing was collected by cardiocentesis, then animals were euthanized by CO2 asphyxiation and subjected to gross necropsy with histopathological evaluation performed on major organs (lungs, heart, liver, brain, spleen and kidneys).

[12] = Study 2B: dose-range-finding toxicity study, single intravenous administration in dogs; conditions: two dogs
Description: The time interval between each dose was three to four days.
Whole blood samples (1 ml/sample) were also collected on each day of dose administration for toxicokinetics analysis.

[13] = 4 μM for 4 hours, vs carrier alone

With `CC1(C)CCC2=C(O1)c1ccccc1C(=O)C2=O` [β-lapachone, 3,4-dihydro-2,2-dimethyl-2H-naphtho [1,2-b]pyran-5,6-dione] the fraction unbound at 10 μM [1] was no more than 0.35, the “stability in human plasma” value [2] was “stable to degradation” and the CC50 (BxPC-3; BXPC-3, read-out: LC50 (Replicate Results)) was 1.89 µM. For the same molecule, the CC50 (BxPC-3; BXPC-3, read-out: LC50 (Replicate Results), BxPC-3, 4 hour exposure, colonies after 14-21 days) was 1.89 µM, the CC50 (PaCa-2; Homo sapiens, PaCa-2, read-out: LC50 (Replicate Results)) was 1.68 µM and the CC50 (PaCa-2; Homo sapiens, PaCa-2, read-out: LC50 (Replicate Results), PaCa-2, 4 hour exposure, colonies after 14-21 days) was 1.68 µM. The CC50 (PaCa-2; human, 4 h) was 1.52 µM, the “lowest concentration tested, at which E2F-1 protein is induced” value (E2F-1) was 0.5 µM and the “reduction of mean tumor volume” value ([3]; 60 mg/kg IP every three days, 10 treatments) was “approximately 75%”. The toxicity ([3]; mouse, in vivo) was “No sign of significant toxicity”, the cell death (G480 lung cancer cells; [13]) was 68% and the survival of cells (G480 lung cancer cells; [13]) was 32%. For the same molecule, the “Colonies (percent control)” value (G480 lung cancer cells; G480, β-lapachone 4 μM, 4 hours, average (SEM) of three experiments) was 32 (0.3) percent control, the “Colonies, Percentage of control” value (ASPC-1) was 45 (1.9) Percentage of control and the mean tumor volume ([4]; 40 and 60 mg/kg IP every three days, 5 treatments) was “reduced the mean tumor volume”. The toxicity ([4]; mouse, in vivo) was “No sign of significant toxicity”, the “cell viability in cultures” value [5] was “significantly decreased” and the number of colonies [6] was “no reduction in the number of colonies”. For the same molecule, the “plasma levels (preliminary toxicokinetic results)” value [7] was “significantly above the values predicted”, the tolerability ([7]; iv, 5 mg/kg) was “well-tolerated” and the CC50 (PC-3) was 2.34 µM. The CC50 (SK-OV-3) was 1.29 µM, the CC50 (HCT-116) was 2.29 µM and the CC50 (DU-145) was 1.1 µM. The CC50 (SK-MEL-28) was 2.4 µM, the CC50 (A549 lung cancer cells) was 1.5 µM and the “animals that died during the infusion” value ([8]; 60 mg/kg at 6 mg/ml) was “Five of the ten animals”. The mean body temperature ([8]; 60 mg/kg, 15-minutes post dosing) was 34.6 °C, the NOEL ([8]; single intravenous dose, male Sprague Dawley rats) was 25 mg/kg and the NOEL ([9]; Study 1A) was 10 mg/kg/dose. For the same molecule, the “bilirubin (slight increase)” value ([9]; high dose animals, Days 2 and 23, ULN 0.27 mg/dl) was 0.33 mg/dL, the decrease in hemoglobin ([9]; mid- and high-dose animals, normalized by Day 37) was less than 2 g/dL and the half-life ([10]; intravenous, elimination half-life, one-hour infusion, doses in the range 5-15 mg/kg) was 4.5 to 7 h. It also gave an AUC ([10]; iv, 5 mg/kg, 1-Hour Infusion) of 1280 ± 118 ng·h/mL, an AUC ([10]; iv, 5 mg/kg, 10-Min. Infusion) of 1200 ± 313 ng·h/mL and a Cmax ([10]; iv, 5 mg/kg, 1-Hour Infusion) of 363 ± 21 ng/mL. For the same molecule, the Cmax ([10]; iv, 5 mg/kg, 10-Min. Infusion) was 834 ± 116 ng/mL, the half-life ([10]; iv, 5 mg/kg, T1/2, 1-Hour Infusion) was 4.3 ± 0.6 h and the half-life ([10]; iv, 5 mg/kg, T1/2, 10-Min. Infusion) was 3.6 ± 0.9 h. For the same molecule, the Vd ([10]; iv, 5 mg/kg, Vdss, 1-Hour Infusion) was 19.6 ± 0.8 L/kg, the Vd ([10]; iv, 5 mg/kg, Vdss, 10-Min. Infusion) was 20 ± 6.3 L/kg and the AUC ([10]; iv, 10 mg/kg, 1-Hour Infusion) was 2640 ± 1020 ng·h/mL. The Cmax ([10]; iv, 10 mg/kg, 1-Hour Infusion) was 707 ± 134 ng/mL, the half-life ([10]; iv, 10 mg/kg, T1/2, 1-Hour Infusion) was 4.9 ± 1.6 h and the Vd ([10]; iv, 10 mg/kg, Vdss, 1-Hour Infusion) was 21 ± 5.3 L/kg. For the same molecule, the AUC ([10]; iv, 15 mg/kg, 1-Hour Infusion) was 4900 ± 54 ng·h/mL, the Cmax ([10]; iv, 15 mg/kg, 1-Hour Infusion) was 896 ± 130 ng/mL and the half-life ([10]; iv, 15 mg/kg, T1/2, 1-Hour Infusion) was 7 ± 1.6 h. The Vd ([10]; iv, 15 mg/kg, Vdss, 1-Hour Infusion) was 26.4 ± 5.7 L/kg, the Vd ([10]; iv, volume of distribution, intravenous infusion) was 20 to 26 L/kg and the clinical signs ([11]; 60 mg/kg, 1-2 hours after dosing, resolved by Day 2) was “transient clinical signs”. For the same molecule, the histopathological findings ([11]; 75 mg/kg group) was “Minimal to mild hepatocellular vacuolation and renal tubular epithelial pallor and attenuation”, the “mortality and clinical signs” value ([11]; 30 or 45 mg/kg dose groups) was “No mortality or clinical signs of toxicity” and the “hematology and serum chemistry values” ([11]; all groups) was “generally unremarkable”. The NOEL ([11]; single one-hour intravenous dose at 3 mg/ml, male and female rats) was 45 mg/kg, the total bilirubin levels ([12]; 45 mg/kg dose, predose 0.38 and 0.26) was 0.66 mg/dL and 0.87 mg/dL and the “hemoglobin at end of study” value ([12]; 11-day study, declined from 14.9 and 13.5) was 9.1 g/dL and 9.7 g/dL.
